Columns and labels:
[1] = system: ATXN3-Q75-GFP SH-SY5Y cells; test: Western blot of LC3-II:LC3-I ratio; format: cell-based, human; conditions: compound 10 μM; uninduced = 100%, untreated induced 76%; range over trehalose and the four compounds
Procedure: For the immunoblotting analysis, ATXN3-Q75-GFP SH-SY5Y cells were seeded in 6-well plates (3 × 10^5/well) and treated with retinoic acid, test compounds, and doxycycline, as described. On day 8, cells were collected and lysed in buffer (50 mM Tris-HCl pH 8.0, 150 mM NaCl, 2 mM EDTA pH 8.0, 0.1% SDS, 0.5% sodium deoxycholate, 1% NP-40) containing the protease inhibitor cocktail (Sigma-Aldrich). After sonication, the lysates were centrifuged (12,000× g for 10 min at 4 °C) and protein concentrations determined (Bradford protein assay; Bio-Rad, Hercules, CA, USA). Aliquots of protein (20 µg) were separated by electrophoresis using 12% SDS-polyacrylamide gel followed by transfer to a polyvinylidene fluoride membrane. After being blocked with 5% skim milk at 4 °C overnight, the membrane was stained with LC3 (1:1000; Medical & Biological Laboratories Co. #PM036, Tokyo, Japan) or GAPDH (glyceraldehyde 3-phosphate dehydrogenase) (1:1000, MDBio #30000002, Taipei, Taiwan) primary antibody at 4 °C overnight. The immune complexes were detected using HRP-conjugated goat anti-rabbit IgG antibody and chemiluminescent substrate, as described.

ATXN3-Q75-VC and VN-LC3 = test: Co-immunoprecipitation of VN-LC3 with ATXN3-Q75-VC in mixed 293T cell lysates; format: binding; conditions: compound 100 µM; compared to without compound treatment
Excerpt: EcoRI-NcoI ATXN3 C-terminal Q14 and Q75-containing fragment (amino acids 251–361 in full-length ATXN3-Q14 [NM_004993]; [20]) and NcoI-NotI Venus C-terminal fragment (VC212-239) were subcloned into EcoRI- and NotI-digested pcDNA3 vector (Invitrogen) to generate pcDNA3-ATXN3-Q14−75-VC plasmid for producing ATXN3-Q14−75-VC fusion protein linked by a 6-amino acid polypeptide linker (containing NcoI restriction site). In addition, BamHI-XbaI Venus-N-terminal fragment (VN1-211) and XbaI-BamHI LC3 cDNA fragment (MAP1LC3B, NM_022818) were subcloned into BamHI-digested pcDNA5/FRT/TO vector (Invitrogen) to generate pcDNA5-VN-LC3 plasmid for producing VN-LC3 fusion protein linked by a 2-amino acid dipeptide linker (containing XbaI restriction site). The recombinant pcDNA3-ATXN3-Q14-VC, pcDNA3-ATXN3-Q75-VC, or pcDNA5-VN-LC3 plasmid (2 μg) was transiently transfected into 293T cells (2 × 10^5/6-well) using T-Pro non-liposome transfection reagent II (T-Pro Biotechnology #JT97-N002M, New Taipei City, Taiwan) according to the supplier’s instruction. After 48 h, cell lysate containing ATXN3-Q14-VC, ATXN3-Q75-VC, or VN-LC3 fusion protein was prepared using cytoskeleton (CSK) buffer containing 10 mM PIPES, 100 mM NaCl, 300 mM sucrose, 1 mM EGTA, 1 mM MgCl2, and 1 mM DTT and quantified, as described.
In this case, 293T cell lysates with transiently expressed ATXN3-Q14-VC, ATXN3-Q75-VC, or VN-LC3, and mixture of ATXN3-Q75-VC and VN-LC3 (100 μg of each) in 400 μL CSK buffer were incubated at 4 °C under gentle rotation. To test the concept of the ATTEC, 100 μM of the compound (NC009-1, -2, and -6 or LM-031) was added to the lysates containing ATXN3-Q75-VC and VN-LC3 proteins. After overnight incubation, ATXN3-Q14−75-VC protein was immunoprecipitated with rabbit ataxin-3 (1:1000; Invitrogen #PA5-26251) or mouse 5TF1-1C2 antibody (1:500; Merck #MAB1574, Darmstadt, Germany) at 4 °C overnight. […] The immune complexes were detected using HRP-conjugated goat anti-rabbit (#GTX213110-01) or goat anti-mouse (#GTX213111-01) IgG antibody (1:5000; GeneTex) and chemiluminescent substrate, as described.

Structure (SMILES)	Relative LC3-II:LC3-I ratio [1]	Amount of VN-LC3 co-immunoprecipitated by 5TF1-1C2 antibody (ATXN3-Q75-VC and VN-LC3)
CC(=O)/C(=C\c1ccccc1[N+](=O)[O-])Cc1c[nH]c2ccccc12 [NC009-1]	102–124%	notably increased
O=C(c1ccccc1)c1cc2c(O)cccc2oc1=O [LM-031]	102–124%	notably increased
CC(=O)/C(=C\c1ccccc1[N+](=O)[O-])Cc1c(C)[nH]c2ccccc12 [NC009-2]	102–124%	notably increased

From PMC11477298, “Small Molecules Inducing Autophagic Degradation of Expanded Polyglutamine Protein through Interaction with Both Mutant ATXN3 and LC3” (International Journal of Molecular Sciences, 2024)
